From PMC11195807, “Development of a multi-targeted chemotherapeutic approach based on G-quadruplex stabilisation and carbonic anhydrase inhibition” (Journal of Enzyme Inhibition and Medicinal Chemistry, 2024) come the findings set out here.

The target in test [1] is T1, hCA IX (Homo sapiens, UniProt Q16790).
T1 construct: made in house
The test is described as follows: stopped-flow CO2 hydrase assay, hCA IX. Type of test: biochemical. Summed up: (§1)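 Inhibition of CA-catalysed CO2 hydration measured by stopped-flow technique. Recombinant human CA IX and XII enzymes produced in-house.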

Test [2] has as its target T2, hCA XII (Homo sapiens, UniProt O43570).
T2 construct: made in house
Nature of the test: stopped-flow CO2 hydrase assay, hCA XII. Type of test: biochemical. Summed up:
as §1

For test [3], the system named is Tel23. Nature of the test: CD melting experiments, Tel23 GQ. It is filed as binding, human.
In test [4] the test system is c-Kit1. Nature of the test: CD melting experiments, c-Kit1 GQ. Type of test: binding.
The subject of test [5] is c-Myc. Nature of the test: CD melting experiments, c-Myc GQ. Type of test: binding. Conditions: ΔT1/2 of compound minus ΔT1/2 of berberine, 1 molar equiv.
Test [6] deals with F-c-Kit1-T GQ. Nature of the test: FRET melting competition experiments. Type of test: binding. Conditions: 2 molar equiv ligand. An excerpt:
FRET melting analysis was used to further estimate the GQ over duplex selectivity of the selected compounds[53]. The GQ-forming oligonucleotide c-Kit1 labelled with FAM and TAMRA (F-c-Kit1-T) was employed because, among the parallel GQs used in this study (c-Kit1 and c-Myc), it was the only one with a lower T1/2 than the hairpin DNA duplex competitor (Hairpin), thus allowing proper estimation of the GQ-stabilising properties of the ligands in the presence of a large excess of the unlabelled (non-fluorescent) competitor. […] The sulphonamide S-3,2 was also considered since the crystal structure of such MTDL in complex with Tel23 was successfully obtained. Results of these experiments (Figure S9, Supporting Information and Table 3) confirmed that these compounds are efficient GQ stabilisers.
Measurements were carried out on an FP-8300 spectrofluorometer equipped with a Peltier temperature controller system (PCT-818). The dual-labelled GQ-forming FAM-[d([…])]-TAMRA sequence (F-c-Kit1-T), supplied by biomers.net GmbH (Ulm, Germany), was used for the experiments without further purification. […] The experiments were carried out in sealed quartz cuvettes with a path length of 1 cm, by using 0.2 μM GQ-forming oligonucleotide without or with 0.4 μM of each compound, and the unlabelled competitor (Hairpin) at 0, 3, and 10 μM final concentrations. FRET melting experiments were performed in the range 15–90 °C, with 0.2 °C/min heating rate, by monitoring the emission of FAM at 520 nm (upon excitation at 492 nm). Both excitation and emission slits were set to 5 nm. The emission intensity of FAM was then normalised between 0 and 1. Fluorescence emission spectra were acquired before (at 15 °C) and after (at 90 °C) the melting assay, in the range 500–650 nm, with a 100 nm/s scan speed. Data analysis was performed using OriginPro 2021 software.

Test [7] relates to Hairpin. The test is described as follows: CD melting experiments, hairpin DNA duplex. The note with it: 2 molar equiv compound, T1/2 of DNA alone 66.0 °C.
Description: To evaluate the possible binding and stabilisation of double-stranded DNA, a 27-nt long hairpin-forming sequence (Hairpin) was employed.
In particular, the following DNA sequences were synthesised and employed for the experiments: d([sequence]) (c-Kit1), d([sequence]) (c-Myc), d([sequence]) (Tel23), and d([sequence]) (Hairpin). Oligonucleotides were dissolved in the proper buffer and their concentration was measured by UV absorption at 90 °C, as previously reported[80]^,[81]. To achieve the correct folding of the sequences, the DNA solutions were heated in a water bath at 90 °C for 5 min, and then allowed to cool slowly to room temperature overnight. Then, DNA samples were stored at 4 °C for 24 h, before data acquisition.
The samples were prepared by dissolving the oligonucleotides in 5 mM KH2PO4/K2HPO4 buffer (pH 7.0) containing 20 mM KCl (or LiCl in the case of c-Myc because of its high thermal stability). DNA concentrations of 20 µM for GQs and 30 µM for Hairpin were used. For each compound, a 10 mM stock solution in 100% DMSO was prepared. […] CD spectra were acquired at 20 and 100 °C, in the 230–320 nm wavelength range, averaged over three scans and subtracted of the buffer baseline. The scanning speed was set to 100 nm/min, with a 0.5 s response time, and 1 nm bandwidth. CD melting experiments were carried out in the 20–100 °C temperature range, with 1 °C/min heating rate, by following changes in the CD signal at the wavelengths of the maximum CD intensity (i.e. 263 nm for c-Kit1 and c-Myc, and 290 nm for Tel23). As for Hairpin, CD melting curves were recorded by following the changes in the CD signal at 252 nm (the wavelength of the minimum CD intensity). CD melting curves were normalised between 0 and 1. […] The ΔT1/2 values correspond to the difference in the T1/2 values of the nucleic acid structures in the presence and absence of the compounds. All experiments were performed in duplicate, and the reported values are the mean of the two measurements.
Where [8] appears, read: coumarins, inhibitor-enzyme incubation 6 h, mean ± SEM of three assays.
Where [9] appears, read: ΔT1/2 of compound minus ΔT1/2 of berberine, 2 molar equiv.

T2 sequence (O43570 25-354): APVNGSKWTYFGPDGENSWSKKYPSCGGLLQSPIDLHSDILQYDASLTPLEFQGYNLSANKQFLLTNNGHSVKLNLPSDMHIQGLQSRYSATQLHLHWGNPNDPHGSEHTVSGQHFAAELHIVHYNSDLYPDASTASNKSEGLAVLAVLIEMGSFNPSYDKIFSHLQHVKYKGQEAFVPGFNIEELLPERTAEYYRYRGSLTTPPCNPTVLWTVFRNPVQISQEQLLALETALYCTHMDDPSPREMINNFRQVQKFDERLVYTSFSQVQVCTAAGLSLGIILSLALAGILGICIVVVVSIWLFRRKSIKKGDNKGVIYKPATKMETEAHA

As a reminder, the Ki is a measure of affinity in units of concentration, obtained from inhibition or displacement. A high value points to lower affinity. For the compound `COc1ccc2cc3[n+](cc2c1OCCCCCn1cc(COc2ccc4ccc(=O)oc4c2)nn1)CCc1cc2c(cc1-3)OCO2` [Compound 39, 10-Methoxy-9-((5–(4-(((2-oxo-2H-chromen-7-yl)oxy)methyl)-1H-1,2,3-triazol-1-yl)pentyl)oxy)-5,6-dihydro-[1,3]dioxolo[4,5-g]isoquinolino[3,2-a]isoquinolin-7-ium hexafluorophosphate], the values for the Ki in test [1] (setting [8]) and in test [2] (setting [8]) were 0.0486 ± 0.0026 µM and 0.0201 ± 0.0013 µM, respectively. In addition, the “Selectivity index (SI) I/IX” value in test [1] (hCA IX over hCA I) was above 205.8. The “Selectivity index (SI) II/IX” value in test [1] (hCA IX over hCA II) is listed as above 205.8. Further, the “Selectivity index (SI) I/XII” value in test [2] (hCA XII over hCA I) is reported as above 497.5. In addition, the “Selectivity index (SI) II/XII” value in test [2] (hCA XII over hCA II) is given as above 497.5. In addition, the “ΔT1/2 Tel23” value in test [3] (2 molar equiv compound, T1/2 of DNA alone 53.5 °C) amounted to 8.5 °C. In addition, the “ΔΔT1/2 Tel23” value in test [3] (setting [9]) is −1.0 °C. Besides, the “ΔT1/2 c-Kit1” value in test [4] (2 molar equiv compound, T1/2 of DNA alone 55.0 °C) stood at 20.0 °C. The “ΔΔT1/2 c-Kit1” value in test [4] (setting [9]) turned out to be 7.0 °C. Moreover, the “ΔΔT1/2 c-Myc” value in test [5] and in test [5] (listed as C-5,2) was above 13.0 °C each time. In addition, in test [6] (15 molar equiv unlabelled Hairpin), the “ΔT1/2 F-c-Kit1-T + Hairpin (1:15)” value was found to be 13.2 °C. For the same compound, the “ΔT1/2 F-c-Kit1-T + Hairpin (1:50)” value in test [6] (50 molar equiv unlabelled Hairpin) came out at 14.0 °C. In addition, the “ΔT1/2 F-c-Kit1-T” value in test [6] (no competitor) worked out at 14.6 °C. The “ΔT1/2 Hairpin” value in test [7] is -1.0 °C.
